What was measured:
[1] = molecular target: T1, CXCR2 (Homo sapiens, UniProt P25025); settings: read-out: Kd of IL-8 binding to CXCR2; cited from earlier work
T1 sequence (P25025 1-360): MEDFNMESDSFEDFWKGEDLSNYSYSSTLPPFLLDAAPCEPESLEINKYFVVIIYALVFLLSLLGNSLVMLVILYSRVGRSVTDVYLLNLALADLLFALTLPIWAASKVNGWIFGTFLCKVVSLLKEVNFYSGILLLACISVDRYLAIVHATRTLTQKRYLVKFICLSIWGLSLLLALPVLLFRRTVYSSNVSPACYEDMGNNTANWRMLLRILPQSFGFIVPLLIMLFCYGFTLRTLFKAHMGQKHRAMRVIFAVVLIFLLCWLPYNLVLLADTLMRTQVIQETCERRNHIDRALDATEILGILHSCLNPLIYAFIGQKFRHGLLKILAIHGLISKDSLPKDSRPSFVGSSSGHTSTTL

[2] = molecular target: T2, CXCR1 (Homo sapiens, UniProt P25024); settings: read-out: Kd of IL-8 binding to CXCR1; cited from earlier work
T2 sequence (P25024 1-350): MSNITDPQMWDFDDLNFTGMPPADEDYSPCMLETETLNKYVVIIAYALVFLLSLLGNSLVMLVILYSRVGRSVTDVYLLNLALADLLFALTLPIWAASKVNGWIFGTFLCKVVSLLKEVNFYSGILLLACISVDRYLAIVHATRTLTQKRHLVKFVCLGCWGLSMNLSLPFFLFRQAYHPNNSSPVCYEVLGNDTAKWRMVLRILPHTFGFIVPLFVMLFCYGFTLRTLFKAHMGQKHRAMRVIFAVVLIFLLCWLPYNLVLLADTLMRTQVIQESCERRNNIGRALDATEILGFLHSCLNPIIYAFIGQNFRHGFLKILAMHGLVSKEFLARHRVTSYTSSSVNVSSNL

[3] = test system: CXCR2+ G-MDSCs; test: Thioglycolate-induced peritonitis, G-MDSC recruitment to peritoneum (flow cytometry); assay type: in vivo, mouse; settings: 2 mg/kg IP at thioglycolate infusion and 12 hr later; peritoneal cells harvested at 24 h; control and Poly I:C-treated mice
Description: FIGS. 3A-3B. A) Representative flow cytometry plots of CXCR2 expression on peritoneal M-MDSCs and G-MDSCs of control and Poly I:C-treated CSF1R^FIFI-Mx1-Cre mice (n=5 mice). Peritoneal cells were harvested […] after thioglycolate infusion (n=5 mice). B) Representative flow cytometry plots of peritoneal M-MDSCs and G-MDSCs harvested 24 hrs after thioglycolate infusion of control and Poly I:C-treated CSF1R^FI/FI-Mx1-Cre mice (n=5 mice). Mice were either untreated or treated with 2 mg/kg SB225002 (CXCR2 inhibitor) at time of thioglycolate infusion and 12 hrs before harvesting (n=5 mice).
Blocking G-MDSC recruitment in thioglycolate-induced peritonitis with a CXCR2 inhibitor. The C-X-C chemokine receptor 2 (CXCR2) signaling axis plays a key role in the migration of immunosuppressive MDSCs. To identify whether these subsets of MDSCs in the peritoneal cavity elicited through thioglycolate-induced peritonitis express CXCR2, peritoneal cells were harvested 24 hours after intraperitoneal injection of thioglycolate and were analyzed by flow cytometry (FIG. 3A). […] At the 24 h time point, peritoneal cells were harvested and analyzed by flow cytometry (FIG. 3B).
Flow cytometry. […] Fluorescence compensations were performed using single-stained UltraComp eBeads (Affymetrix). […] Data was acquired using a FACSAria II cell sorter (BD Biosciences) and analyzed using FlowJo software. […]

[4] = test system: B16-F10 melanoma; test: B16-F10 melanoma in control and Poly I:C-treated CSF1R Fl/Fl-Mx1-Cre mice treated with CXCR2 inhibitor; assay type: in vivo, mouse
Description: FIGS. 5A-5D. A) CSF1R^FI/FI-Mx1-Cre mice received three intraperitoneal injections of Poly I:C (100 ug) and were rested for one week. 5×10^5 B16-F10 mouse melanoma cells were then subcutaneously engrafted into flanks of control and Poly I:C-treated CSF1R^FIFI-Mx1-Cre mice. Following the day of engraftment, mice were either untreated or treated daily with 2 mg/kg SB225002 (CXCR2 inhibitor). Burden of B16-F10 melanoma tumors in control and Poly I:C-treated CSF1R^FIFI-Mx1-Cre mice treated with or without SB225002. Data are mean±s.e.m. (n=5 mice per group). B) Flow cytometry analysis of M-MDSCs and G-MDSCs in tumors of mice. MDSCs are gated on CD11b+ cells. Data are mean±s.e.m. (n=5 mice per group). C) Flow cytometry analysis of M-MDSCs and G-MDSCs in bone marrow of tumor-bearing mice. MDSCs are gated on CD11b+ cells. Data are mean±s.e.m. (n=5 mice per group). D) Flow cytometry analysis of M-MDSCs and G-MDSCs in the peripheral blood of tumor-bearing mice. MDSCs are gated on CD11b+ cells. Data are mean±s.e.m. (n=5 mice per group).
Targeting G-MDSCs in B16-F10 melanoma with a CXCR2 inhibitor. To determine whether targeting CXCR2+ G-MDSCs could lead to an anti-tumor response, poly I:C and PBS mice were subcutaneously engrafted with B16-F10 melanoma. The day after engraftment, mice were treated intraperitoneally with PBS or SB225002 six days per week. […] Tumors were harvested and subjected to flow cytometry for immunophenotyping.
Flow cytometry. Samples were blocked with monoclonal antibody to CD16/32 (TruStain fcX, BioLegend) before staining with antibody panels. Samples were stained for 30 min on ice, and subsequently washed with FACS buffer (PBS with 1% FBS buffer). Fluorescence compensations were performed using single-stained UltraComp eBeads (Affymetrix). The following antibodies were used for FACS analysis: Anti-CD11b (M1/70 BD Biosciences); Anti-F4/80 (BM8 BioLegend); Anti-Ly6G (1A8 BioLegend), Anti-Ly6C (HK1.4 BioLegend); Anti-CXCR2 (SA044G4 BioLegend). SYTOX blue dead cell stain (Invitrogen) was used for dead cell exclusion. Data was acquired using a FACSAria II cell sorter (BD Biosciences) and analyzed using FlowJo software.
In vivo tumor experiments and treatments. Mice 6-8 weeks of age were given subcutaneous injection of B16-F10 melanoma cells in PBS into the right flank. Tumor growth was measured by using calipers and volumes were calculated by using the formula: volume= 4/3π×(x/2)2×(y/2), where x is the largest measurable dimension of the tumor and y is the dimension immediately perpendicular to x. Tumor volumes were evaluated using two-way ANOVA in GraphPad Prism. For tumor treatments, mice were given mouse IgG1 isotype control clone MOPC21 (BioXCell), anti-CD47 mAb clone MIAP410 (BioXCell), or SB225002 (ToCris) by intraperitoneal injection.

[5] = molecular target: T1, CXCR2; settings: cited from earlier work

IL-8: chemokine ligand of CXCR1 and CXCR2
Kd [1]: ~4 nM | Kd [2]: ~4 nM

O=C(Nc1ccc([N+](=O)[O-])cc1O)Nc1ccccc1Br [SB225002]
Percentage of G-MDSCs in the peritoneal cavity [3]: significantly decreased percentage of G-MDSCs | Tumor progression (burden of B16-F10 melanoma tumors) ([4]; 2 mg/kg intraperitoneally from the day after engraftment, especially in mice expressing CSF1R): significantly decreased tumor progression | G-MDSCs in bone marrow of tumor-bearing mice ([4]; bone marrow, flow cytometry): significant decrease of G-MDSCs | G-MDSCs in peripheral blood of tumor-bearing mice ([4]; peripheral blood, flow cytometry): significant decrease of G-MDSCs | Tumor-infiltrating G-MDSCs ([4]; tumors, flow cytometry, gated on CD11b+ cells): significant decrease in tumor-infiltrating G-MDSCs | Selective/Pan [5]: Selective

CC[C@@H](Nc1c(Nc2cccc(C(=O)N(C)C)c2O)c(=O)c1=O)c1ccc(C)o1 [Navaraxin, Navarixin]
Selective/Pan [5]: Selective

O=C(Nc1ccc(F)cc1)c1cnc(SCc2cc(OC(F)(F)F)ccc2B(O)O)nc1 [SX-682]
Selective/Pan [5]: Pan

Reference: patent US20250376522A1, “Targeting Cells with a Combination of CXCR2 Inhibition and CD47 Blockade” (The Board of Trustees of the Leland Stanford Junior …, priority 2022, published 2025)
